Source: PMC11933534, “Favipiravir induces HuNoV viral mutagenesis and infectivity loss with clinical improvement in immunocompromised patients” (Clinical Immunology (Orlando, Fla.), 2024)
Values joined by “and” are separate entries in the source; they are usually repeats but may differ in a detail not shown here. Identical values can stand only once.

Tests used:
HuNoV = HuNoV whole-genome sequencing of longitudinal patient stool samples; set-up: species or system human
From the text: Stool samples were collected from the patients. Full-length HuNoV genome sequences were obtained from samples using SureSelectXT target enrichment and Illumina sequencing. For each patient, a unique patient reference was generated by mapping the remaining reads of the first sample to the genotype reference from GenBank using bwa-mem. Reads from the subsequent samples of the same patient were mapped to this patient reference. Consensus sequences were aligned using MAFFT [58]. Only genomes with >80% genome coverage and a mean read depth of 100 or above were included in downstream analysis. Minority allele variants with a frequency of above 2% and a minimum of 2 supporting reads were identified at sites with a read depth of ≥5 using VarScan. For plotting polymorphism frequency, we have determined Watterson's theta which normalises for reading depth. Maximum likelihood phylogenies were constructed using RAxML [13], with the GTR model and 1000 bootstrap replicates. General data processing was carried out in R 3.6.1 using Rstudio 1.2. with the tidyverse family of packages (v1.2.1). Figures were made using the ggplot2 package.

HuNoV GII.4 Sydney[P16] = assay: Antiviral treatment of HuNoV-infected zebrafish larvae (viral RNA by RT-qPCR); type: in vivo; conditions: for Reduction in viral load with post-treatment sample: favipiravir 25 ng, inoculum P1 SS F carrying RdRp A44S change
Description: First, compounds were dissolved in 100% DMSO (spectroscopy grade). To determine the correct dose for pericardial injections in zebrafish larvae of all compounds (i.e. favipiravir, tizoxanide and their 1:1 combination), a weight-dependent conversion was applied. For this purpose, the optimized and increased clinical dose of 400 mg favipiravir TDS and 200 mg tizoxanide BD was used. To ensure the weight-converted dose was not toxic for zebrafish larvae of 3 days post fertilization, a toxicity analysis was performed. […] The following parameters were investigated: touch response, morphology, posture, oedema, signs of necrosis, swim bladder and heartbeat.
Zebrafish larvae were anesthetized and positioned as described previously, in short: zebrafish larvae of 3 days post fertilization were anesthetized and transferred to an agarose mold to position them on their dorsal side with the yolk facing upward. In every experiment, the injection needle was calibrated to ensure the precision of the injection volume. Microinjection was performed using an M3301R Manual Micromanipulator (WPI, Friedberg, Germany) and a FemtoJet 4i pressure microinjector (Eppendorf, Hamburg, Germany). Compound-treated zebrafish larvae received a 1 nL (1.5 nL in case of the combination treatment) injection of compound in the pericardial cavity, while negative control zebrafish were injected with an equal volume of DMSO. Subsequently, the zebrafish larvae received an injection of 3 nL virus in the yolk. After both injections, zebrafish larvae were transferred to 6-well plates with Danieau's solution and further maintained in an incubator with a 14/10 h light/dark cycle at 32 °C.
Zebrafish larvae were homogenized (Precellys 24, Bertin Technologies, Montigny-le-Bretonneux, France), the homogenates were cleared by centrifugation (5 min, 9000 g), and RNA was extracted using the Direct-zol RNA kit (Zymo Research, Irvine, CA, USA), according to the manufacturer's protocol. RNA levels were quantified with a one-step RT-qPCR (iTaq Universal Probes One-Step Kit, Bio-Rad, Hercules, CA, USA) as previously described.

[1] = Favipiravir plasma trough level monitoring in patients (UPLC-MS/MS); type: in vivo, human
Description: Plasma was isolated from patient blood samples collected in EDTA. Frozen plasma samples were shipped to Laboratoire de Pharmacocinétique-Toxicologie, […] La Timone, Aix-Marseille Université, Marseille, France for favipiravir concentration analysis. The quantification of favipiravir in thawed plasma samples was performed by ultra-performance liquid chromatography coupled with tandem mass spectrometry (UPLC-MS/MS) method (UPLC-TQD, Waters, USA) with a lower limit of quantification of 0.5 μg/mL [34]. Validation of the assay was performed in accordance with the 2012 EMA guidelines and the ISO15189 guidelines. Model parameter estimation, model simulation properties (visual predictive check) and dose simulations were assessed using […]2 (2.0.6) and rxode2 (2.0.7) in R (4.2.0), as described elsewhere.

SMILES: NC(=O)c1nc(F)c[nH]c1=O [favipiravir]
- Favipiravir-associated viral sequence changes (HuNoV; P1, P2 and P4, coinciding with periods of favipiravir treatment, reducing after cessation): accumulation of A to G and T to C sequence changes
- Favipiravir-associated viral sequence changes (HuNoV; P3, six samples): without evidence of accumulation of A to G and T to C favipiravir-associated sequence changes
- Reduction in viral RNA copies/zebrafish (HuNoV GII.4 Sydney[P16]; favipiravir 25 ng single pericardial injection, inoculum P1 pre-treatment SS A, day 3 pi (peak), p = 0.0263): 1.6 log10
- Reduction in viral load with post-treatment sample (HuNoV GII.4 Sydney[P16]): no reduction in viral load
- Reduction in viral load with post-treatment sample (HuNoV GII.4 Sydney[P16]; listed as Favipiravir): cannot reduce
- Reduction of HuNoV replication (HuNoV GII.4 Sydney[P16]; monotherapy favipiravir 25 ng or tizoxanide 4 ng, in-house GII.4 Sydney[P16] stool sample, peak 2 dpi, p = 0.0006 and 0.001): > 1 log10
- Favipiravir plasma trough level ([1]; P1, 200 mg TDS (8-hourly, 51 mg/kg/day), average at month four): 10.0 µg/mL
- Favipiravir plasma trough level ([1]; P1, 400 mg TDS (8-hourly, 97 mg/kg/day)): 154 µg/mL and 154.0 µg/mL
- Favipiravir plasma trough level ([1]; P4, 400 mg TDS (8-hourly, 67 mg/kg/day)): 159 µg/mL and 159.0 µg/mL
